This is an account of results in ChEMBL document CHEMBL1201862, “PubChem BioAssay data set” (2004).

Among the test systems are Hs-578T; HOP-18; XF498; M19-MEL; LXFL 529; SNB-78; DMS-114; KM-20L2; RXF 631.
Common to all, as to assay: growth of human tumour cells (NCI), 48 h

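The compound was tested at five concentrations on cells cultured in 96-well plates, with a 48-hour exposure period. GI50: concentration for 50% inhibition of growth.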 Activity calls are given as the source filed them. Rule as the data show it: active = GI50 up to about 1.1 µM and inactive = higher.

For the molecule `CC1(C)[C@@H]2CC[C@@]1(C)C1(S[S+]1[O-])C21Cc2ccccc2C1` (stereo partly specified), in the experiment on Hs-578T, the GI50 is 44.2 µM (inactive).

Turning to `Nc1cccc(-c2cc(O)c3cc4c(cc3n2)OCO4)c1`, the GI50 in the experiment on HOP-18 is 40.2 µM (inactive); with Hs-578T, 0.389 µM (active); in the experiment with XF498 it was 7.26 µM (inactive); in the experiment with M19-MEL, 0.931 µM (active); in the experiment on LXFL 529 it was 0.527 µM (active); in the experiment with SNB-78, 0.834 µM (active).

Regarding `COc1ccc(C(=O)/C=C/c2ccc3c(c2)OCO3)c(OCc2ccccc2)c1`, the GI50 in the experiment on Hs-578T was 7.82 µM (inactive).

`O=C(c1ccccc1)c1ccc2c(c1)nc1n2C(c2c(Cl)cccc2Cl)SC1` (stereo unspecified): the GI50 with Hs-578T is 84.1 µM (inactive).

In the case of `N=C(N)N/N=C(/c1ccccc1)c1ccc(O)cc1O`, the GI50 with Hs-578T was 22 µM (inactive).

`O=C(Nc1cccc(Cl)c1)Nn1cnnc1`: the GI50 in the experiment with Hs-578T is > 100 µM (inactive).

For `CC(=O)Nc1ccc(-c2nc3ccccc3s2)cc1C`, the GI50 with Hs-578T is 45.4 µM (inactive).

`CC1=NN(c2nc(N)nc(COc3ccc(N)cc3)n2)C(C)(C)C1`: the GI50 in the experiment on Hs-578T was > 100 µM (inactive).

In the case of `CC1C=C(NCC2(CO)CCC2)N=C(N)N1` (stereo unspecified), the GI50 in the experiment with Hs-578T is > 100 µM (inactive).

With `C/C(=C\C(=O)O)C(=O)N(C)c1ccccc1I`, the GI50 with Hs-578T is > 100 µM (inactive).

In the case of `CC(C)/C(Cl)=N\OC(=O)Nc1ccc(F)c([N+](=O)[O-])c1`, the GI50 in the experiment with Hs-578T is 12.1 µM (inactive).

With `Oc1c(Cl)c(Cl)c(O)c(CCNc2ccc3ncccc3c2)c1Cl`, in the experiment with Hs-578T, the GI50 was 5.04 µM (inactive).

On to `CSc1ncc2c(C#N)c3n(C)c4ccccc4n3c(=O)c2n1`, for which, in the experiment with Hs-578T, the GI50 was > 100 µM (inactive).

For the molecule `C=CCOCn1ccc(=O)[nH]c1=O`, in the experiment on Hs-578T, the GI50 was > 100 µM (inactive).

In the case of `O=S(=O)(N/C(=N\O)Nc1ccc(Cl)cc1)c1ccc(S(=O)(=O)c2ccccc2)s1`, in the experiment with Hs-578T, the GI50 is 28.6 µM (inactive).

Regarding `N/C(=N\N=C\c1nc2ccccc2o1)c1cnccn1`, the GI50 with Hs-578T is > 100 µM (inactive).

For `CC(=O)c1c2c(cc3c1CC1(Cc4cc5c(cc4C1)CCC5)C3)CCC2`, the GI50 with Hs-578T is > 100 µM (inactive).

As to `CN(C)c1ccc2c(SCC(=O)OCC(=O)[C@@]3(O)CC[C@H]4[C@@H]5CCC6=CC(=O)C=C[C@]6(C)[C@H]5C(=O)C[C@@]43C)c3ccc(N(C)C)cc3nc2c1`, the GI50 with Hs-578T was > 100 µM (inactive).

As for `COC(=O)C1C(=O)C=CN([C@H](C)c2ccccc2)[C@@H]1Cc1ccc(OC)c(OCc2ccccc2)c1I` (stereo partly specified), in the experiment on Hs-578T, the GI50 is 17.5 µM (inactive).

On to `CC(=O)OC1(C#N)CC2OC1C1C2N1C(=O)OC(C)(C)C` (stereo unspecified), for which the GI50 with XF498, in the experiment with M19-MEL, in the experiment with DMS-114, in the experiment with LXFL 529, with KM-20L2 and in the experiment with SNB-78 was > 100 µM (inactive) in each case.

As to `Cc1n[nH]c(=O)n1/N=C/c1ccc([N+](=O)[O-])cc1`, the GI50 in the experiment with Hs-578T is 78 µM (inactive).

For the molecule `O=C(Cc1nc2ccccc2s1)Nc1ccc(Cl)cc1`, the GI50 in the experiment with XF498 is > 100 µM (inactive); with M19-MEL it was > 100 µM (inactive); in the experiment on LXFL 529 it was 44.2 µM (inactive); in the experiment on KM-20L2 it was 50.6 µM (inactive); in the experiment with SNB-78 it was > 100 µM (inactive).

Turning to `O=C1c2ccccc2C(=O)c2c(NCC3CO3)cccc21` (stereo unspecified), the GI50 with Hs-578T is 38.4 µM (inactive).

Take `Fc1ccccc1C1SCc2nc3ccccc3n21` (stereo unspecified): the GI50 was 51.9 µM (inactive) in the experiment on M19-MEL; 24.4 µM (inactive) in the experiment on DMS-114; 37.6 µM (inactive) with LXFL 529; 31.3 µM (inactive) in the experiment with RXF 631; > 100 µM (inactive) in the experiment with SNB-78.

Regarding `Cc1ccc([N+](=O)[O-])cc1S(=O)(=O)Nc1ccc(C2=NNC(c3ccccc3)C2)cc1` (stereo unspecified), the GI50 in the experiment on Hs-578T is 22.5 µM (inactive).

For `COC(=O)CC1C(COC(C)=O)OC(n2cc(C)c(=O)[nH]c2=O)C1OC(C)=O` (stereo unspecified), the GI50 in the experiment on Hs-578T is 4.73 µM (inactive).

On to `COc1ccc2c3c1C(=O)CCCC3CO2` (stereo unspecified), for which the GI50 with XF498, in the experiment on M19-MEL, with DMS-114, in the experiment with LXFL 529 and with SNB-78 was > 100 µM (inactive) each time.

For the molecule `O=S(=O)(O)/C(=N\c1cccc(Cc2ccccc2)c1)Nc1cccc(Cc2ccccc2)c1`, the GI50 with Hs-578T is 19.1 µM (inactive).

In the case of `CC(=O)OC[C@@]1(C)[C@@H]2[C@@H]3[C@@]4(CO[C@]3(C)C(=O)[C@@]3(O)C[C@H](C)[C@H](OC(C)=O)[C@@H]3[C@H]4OC(C)=O)[C@H](OC(=O)c3ccccc3)C[C@@H]21`, the GI50 with Hs-578T is > 100 µM (inactive).

`N#CCCN(CCC#N)c1ccc(C(/N=N/c2ccc(Cl)cc2)=N\c2ccccc2)cc1`: the GI50 in the experiment with Hs-578T is 18.9 µM (inactive).

Turning to `CN1C(=O)C(c2c[nH]c3ccccc23)N(C)C(=O)C1c1c[nH]c2ccccc12` (stereo unspecified), in the experiment with Hs-578T, the GI50 is 62.1 µM (inactive).

On to `Cc1c(C)c2c(c(N)c1C#N)C(=O)N(CCN1CCNCC1)C2=O`, for which, in the experiment on Hs-578T, the GI50 was 28.8 µM (inactive).

Turning to `CC(C)(c1cn(Cc2ccccc2)c2ccccc12)c1cn(Cc2ccccc2)c2ccccc12`, the GI50 with M19-MEL, in the experiment with DMS-114, in the experiment on LXFL 529 and with SNB-78 was > 100 µM (inactive) throughout.

As to `CC(SC(=O)Nc1ccc(/N=N/c2ccccc2)cc1)C(=O)O` (stereo unspecified), the GI50 was > 100 µM (inactive) in the experiment on DMS-114, 98.4 µM (inactive) in the experiment on LXFL 529, > 100 µM (inactive) with KM-20L2 and > 100 µM (inactive) in the experiment with SNB-78.

Consider `Cn1c(=O)c2ccccc2c2ccccc21`, for which the GI50 in the experiment on Hs-578T was 44.5 µM (inactive).

Consider `NCC(O)CNCC/C=C\C/C=C\C/C=C\C/C=C\C/C=C\C/C=C\CCCCC/C=C\CCNCC(O)CN` (stereo unspecified), for which the GI50 with Hs-578T is 1.36 µM (inactive).

On to `CC1CCC2CC(=O)OC([C@@H]3C(=O)O[C@@H](C4=CCCC4)C4C(C)CCC43)C12` (stereo partly specified), for which the GI50 in the experiment with HOP-18 was > 100 µM (inactive); in the experiment on XF498 it was > 100 µM (inactive); in the experiment on M19-MEL it was > 100 µM (inactive); in the experiment with DMS-114, 27.7 µM (inactive); in the experiment on LXFL 529, 47.4 µM (inactive); in the experiment with KM-20L2 it was 92.3 µM (inactive). Besides, the GI50 with SNB-78 is > 100 µM (inactive).

On to `CC1=C(C(=O)OCCc2ccc([N+](=O)[O-])cc2)C(c2ccccc2C(F)(F)F)C(C(=O)OC(C)C)=C(C)N1` (stereo unspecified), for which, in the experiment on Hs-578T, the GI50 was 2.12 µM (inactive).

For the molecule `Nc1ncnc2sc(Nc3ccccc3)nc12`, the GI50 in the experiment with XF498 is > 100 µM (inactive); in the experiment with M19-MEL, > 100 µM (inactive); in the experiment with LXFL 529 it was > 100 µM (inactive); with KM-20L2 it was 43.8 µM (inactive); in the experiment on RXF 631, 9.86 µM (inactive); with SNB-78, > 100 µM (inactive).

With `CSc1cc(Cl)c(C(=O)Nc2ccccc2)cc1S(=O)(=O)n1ccnc1O`, in the experiment on Hs-578T, the GI50 was > 100 µM (inactive).

Take `Clc1ccc(C(OCn2ccnc2)c2nc3ccccc3[nH]2)c(Cl)c1` (stereo unspecified): the GI50 in the experiment on Hs-578T is 59.3 µM (inactive).

For the molecule `C/N=C(\N)N/N=C(\C)c1ccc2oc3ccc(/C(C)=N/N/C(N)=N/C)cc3c2c1`, the GI50 in the experiment on Hs-578T was 1.43 µM (inactive).

As for `COc1ccc(/C=C/c2cnnc3ccccc23)cc1OC`, in the experiment with Hs-578T, the GI50 is > 10 µM (inactive).

As for `COc1nc(NC2OC(COC(C)=O)C(OC(C)=O)C(OC(C)=O)C2OC(C)=O)c(/N=C(\C)C(C)=O)c(=O)n1C` (stereo unspecified), the GI50 in the experiment with HOP-18, in the experiment on XF498, in the experiment on M19-MEL, in the experiment on DMS-114, in the experiment with LXFL 529 and with KM-20L2 was > 100 µM (inactive) throughout. In addition, the GI50 with SNB-78 is > 100 µM (inactive).

Take `C[n+]1ccccc1/C=C/c1ccc2c(c1)OCO2`: the GI50 in the experiment on Hs-578T was > 10 µM (inactive).

As for `COc1ccc(-c2cc(=O)c3ccc(O)cc3o2)c(OC)c1OC`, the GI50 is 65.5 µM (inactive) in the experiment with XF498; 74.3 µM (inactive) in the experiment with M19-MEL; 33.2 µM (inactive) with DMS-114; 66.8 µM (inactive) in the experiment with LXFL 529; 43 µM (inactive) in the experiment with KM-20L2.

On to `C[N+]1(C)CCCC1C(=O)[O-]` (stereo unspecified), for which the GI50 with HOP-18, with XF498, in the experiment on M19-MEL, with DMS-114, with LXFL 529 and with KM-20L2 was > 100 µM (inactive) each time. Further, the GI50 in the experiment with SNB-78 was > 100 µM (inactive).

Regarding `CCN(CC)C(=C(C(Cl)=C(Cl)Cl)[N+](=O)[O-])N(CC)CC`, in the experiment with Hs-578T, the GI50 is 24.7 µM (inactive).

On to `COC1(OC)CCc2c(sc3ncnc(Nc4cccc(Br)c4)c23)C1`, for which the GI50 in the experiment on Hs-578T was > 100 µM (inactive).

As for `N#CCOc1cccc(C2(N3CC=CCC3)CCCCC2)c1`, in the experiment on Hs-578T, the GI50 is > 100 µM (inactive).

Consider `N#CC1CC2(CCN1C(=O)c1ccccc1)OCCO2` (stereo unspecified), for which the GI50 with HOP-18, in the experiment on XF498, in the experiment with M19-MEL, in the experiment with DMS-114, with LXFL 529 and with KM-20L2 was > 100 µM (inactive) throughout. Also, the GI50 with SNB-78 is > 100 µM (inactive).

Turning to `O=c1[nH]c(=O)n(C2CC(O)C(CO)O2)cc1/C=C/Br` (stereo unspecified), the GI50 in the experiment on XF498, in the experiment with M19-MEL, with DMS-114, in the experiment on LXFL 529, in the experiment on KM-20L2 and with RXF 631 was > 100 µM (inactive) in each case. The GI50 in the experiment with SNB-78 was > 100 µM (inactive).

Consider `CC[C@H](C)[C@H](NC(=O)[C@@]1(O)[C@H](O)[C@]2(CC)C=CCN3CC[C@@]4(c5cc(Br)c(OC)cc5N(C)[C@@H]14)[C@@H]32)C(=O)OC`, for which the GI50 with Hs-578T is 23.2 µM (inactive).

On to `O=c1[nH]cc(F)c(=O)[nH]1` [FLUOROURACIL], for which the GI50 in the experiment with Hs-578T was 225 µM (inactive).

`COc1ccc(SCc2cc(OC)ccc2OC)cc1`: in the experiment on Hs-578T, the GI50 was 29.5 µM (inactive).

On to `O=C(c1c(O)cc(O)cc1O)C1Cc2ccccc21` (stereo unspecified), for which the GI50 was 3.18 µM (inactive) in the experiment on HOP-18; > 100 µM (inactive) in the experiment with M19-MEL; > 100 µM (inactive) in the experiment with DMS-114; > 100 µM (inactive) in the experiment on LXFL 529; > 100 µM (inactive) in the experiment on KM-20L2; 58.7 µM (inactive) in the experiment with SNB-78.

For `O=C(/C=C/c1ccsc1)c1ccsc1`, the GI50 in the experiment on Hs-578T is 27.8 µM (inactive).

Take `O=C1CC(c2cccc([N+](=O)[O-])c2)C2(C(=O)NC(=S)NC2=O)C(c2cccc([N+](=O)[O-])c2)C1` (stereo unspecified): the GI50 with Hs-578T is 22.8 µM (inactive).

Take `Nc1ccc2c(c1)C(=O)c1ccc(F)cc1-2`: in the experiment with Hs-578T, the GI50 was > 100 µM (inactive).
